Results on 11 molecules are retold here after paper PMC3994528, “GE23077 binds to the RNA polymerase ‘i’ and ‘i+1’ sites and prevents the binding of initiating nucleotides” (eLife, 2014).

Where two headings read alike, the source gives them in different places. A value given as a limit tells only on which side of the number the result lay.

Assay [1] concerns the target Escherichia coli RNAP (Escherichia coli, UniProt P0A8T7+P0A8V2). Kind of assay: biochemical. Conditions: wild-type RNAP; at the limit of detection of the assay. It is filed as biochemical.
Assay [2] addresses [Asn516]β-RNAP (Escherichia coli, UniProt P0A8T7+P0A8V2, D516N). Kind of assay: biochemical. The format is biochemical.
Assay [3] addresses [Asp565]β-RNAP (Escherichia coli, UniProt P0A8T7+P0A8V2, E565D). The format is biochemical.
Assay [4] has as its target GE23077. Kind of assay: partial-competitive binding of GE and Rif: association kinetics for Rif (fluorescence intensity of fluorescein-labelled RNAP holoenzyme). Particulars: 2000 nM GE.
Assay [5] concerns the target T1, E. coli RNAP holoenzyme ([F^517]σ^70-RNAP holoenzyme) (Escherichia coli, UniProt P0A8T7+P0A8V2).
T1 construct: made in house
Kind of assay: Fluorescence-detected RNAP-Rif interaction assay. The format is binding. Particulars: for Kd: calculated as koff/kon. How it is done:
RNAP-Rif interaction assays were performed as in [Feklistov et al. (2008)]. The assays monitored the quenching of the fluorescence emission of fluorescein incorporated into RNAP holoenzyme at σ^70 residue 517 (serving as a fluorescence-resonance-energy-transfer donor) by the naphthyl moiety of Rif (serving as a fluorescence-resonance-energy-transfer acceptor; [Knight et al., 2005]; [Feklistov et al., 2008]). Fluorescence measurements were performed using a QuantaMaster QM1 spectrofluorometer (PTI, Edison, NJ) (excitation wavelength = 480 nm; emission wavelength = 530 nm; and excitation and emission slit widths = 5 nm).
For determination of association kinetics, 720 μl 2 nM [F^517]σ^70-RNAP holoenzyme and 0-2 μM GE in 40 mM Tris–HCl, pH 8.0, 100 mM NaCl, 10 mM MgCl2, 1 mM DTT, 0.02% Tween-20, and 5% glycerol was incubated 15 min at 24°C and then mixed with 30 μl 0.01–0.5 μM Rif in the same buffer at 24°C in a cuvette chamber with a mixing dead time ∼0.5 s, and fluorescence emission intensities were monitored for 30 min at 24°C. On-rates for RNAP-Rif interaction, kon, were calculated by fitting data to: I=(I0−I∞)exp(−kobst)+I∞ where kobs is the observed association rate constant at a specified Rif concentration, I is the fluorescence emission intensity at time t, Io is the fluorescence emission intensity at t = 0, and I∞ is the fluorescence emission intensity at t = ∞; followed by fitting the Rif-concentration-dependence of kobs to: kobs=kon[Rif]+koff where koff is ≥0 but is otherwise unconstrained.
Off-rates for RNAP-Rif interaction, koff, were calculated as: I=I0+(I∞−I0)[1−exp(−kofft)] where I is the fluorescence emission intensity at time t, Io is the fluorescence intensity at t = 0, and I∞ is the fluorescence intensity at t = ∞.
Equilibrium dissociation constants for RNAP-Rif interaction, Kd, were calculated as koff/kon.
The equilibrium dissociation constant for RNAP-GE interaction, Ki, was calculated from the association-kinetics data, by fitting the GE-concentration-dependence of I∞ to: I∞=(I∞,max[GE])/(Ki+[GE])

In assay [6] the target is T2, E. coli RNAP holoenzyme (Escherichia coli, UniProt P0A8T7+P0A8V2). The format is biochemical. Particulars: halted TEC containing 29 nt RNA product.
Assay [7] deals with T2, E. coli RNAP holoenzyme. It is filed as biochemical. Conditions: 0.5 μM GE or 2.2 μM Rif; ApA primer and UTP.
The target of assay [8] is T2, E. coli RNAP holoenzyme. It is filed as biochemical. Particulars: 0.5 μM GE or 2.2 μM Rif; lacUV5(ICAP) promoter.
For assay [9], the system named is E. coli D21f2tolC. Briefly: Resistance and cross-resistance levels, rpoB mutants from saturation mutagenesis (plasmid-borne), broth microdilution. The format is cell-based, Escherichia coli.
The target of assay [10] is [F^517]σ^70-RNAP holoenzyme (E. coli RNAP holoenzyme labelled with fluorescein at σ^70 residue 517), wild-type RNAP (E. coli) (UniProt P0A8V2). Kind of assay: other fluorescence titration.
[11] abbreviates: rpoB 565 Glu→Asp, GE^R mutant from saturation mutagenesis.
The mark [12] stands for this setting: rpoB 566 Gly→Arg, GE^R mutant from saturation mutagenesis.
Where [13] appears, read: rpoB 566 Gly→Cys, GE^R mutant from saturation mutagenesis.
[14] abbreviates: rpoB 566 Gly→Ser, GE^R mutant from saturation mutagenesis.
The mark [15] stands for this setting: rpoB 684 Asn→Lys, GE^R mutant from saturation mutagenesis.
[16] abbreviates: rpoB 684 Asn→Thr, GE^R mutant from saturation mutagenesis.
The mark [17] stands for this setting: wild-type control of the saturation-mutagenesis mutants, E. coli D21f2tolC.

In the case of `CO[C@H]1/C=C/O[C@@]2(C)Oc3c(C)c(O)c4c(O)c(c(NC(C)C(C)C(=O)NC[C@H]5NC(=O)CNC(=O)[C@H](O)CNC(=O)[C@@H]([C@@H](C)O)NC(=O)[C@H]([C@@H](O)[C@H](O)C(N)=O)NC(=O)[C@@H](C(C)C)NC(=O)[C@@H](CO)NC5=O)c(O)c4c3C2=O)NC(=O)/C(C)=C\C=C\[C@H](C)[C@H](O)[C@@H](C)[C@@H](O)[C@@H](C)[C@H](OC(C)=O)[C@@H]1C` (stereo partly drawn) [RifaGE-3, {[α-descarboxy-Ama]GE}-NH-{RifSV}], the IC50 in [1] was no more than 40 nM; in assay [2] (Rif-resistant RNAP [Asn516]β-RNAP, read-out: IC50) it was 200 nM. Further, the “fold more potent than RifSV in inhibition of Rif^R RNAP” value in assay [2] is 50 fold. Moreover, in [3], the “fold more potent than GE in inhibition of GE^R RNAP” value is greater than 2500 fold.
Turning to “[F^517]σ^70-RNAP holoenzyme (E. coli RNAP holoenzyme labelled with fluorescein at σ^70 residue 517), wild-type RNAP (from UniProt P0A8V2;P0A8T7;P00579) [Lys684]β”, in assay [4], the Ki is greater than 2000 nM.
Take `CO[C@H]1/C=C/O[C@@]2(C)Oc3c(C)c(O)c4c(O)c(c(/C=N/N5CCN(C)CC5)c(O)c4c3C2=O)NC(=O)/C(C)=C\C=C\[C@H](C)[C@H](O)[C@@H](C)[C@@H](O)[C@@H](C)[C@H](OC(C)=O)[C@@H]1C` [Rif, Rifampin]: the MICwild-type came out at 0.2 µg/mL. Besides, in assay [5] (absence of GE), the Kd was 0.4 nM. Moreover, in [5] (presence of saturating GE (2000 nM)), the Kd was 30 nM. Moreover, in assay [5] (read-out: koff for Rif, 0 nM GE, Figure 6-figure supplement 1), the koff is 0.00019 s⁻¹. Besides, in assay [5] (read-out: koff for Rif, absence of GE, Figure 6C), the koff is 0.0002 s⁻¹. Further, the kon in assay [5] (read-out: kon for Rif, 0 nM GE, Figure 6-figure supplement 1 (condition assigned by comparison with Figure 6C)) was 520000 M⁻¹ s⁻¹. The kon in assay [5] (read-out: kon for Rif, absence of GE, Figure 6C) is 500000 M⁻¹ s⁻¹. Besides, the “inhibition of nucleotide addition in transcription elongation, halted elongation complex” value in assay [6] is on record as “does not inhibit nucleotide addition in transcription elongation”. Also, in assay [7], the “inhibition of first nucleotide addition, primer-dependent transcription initiation” value is “does not generally inhibit the first nucleotide-addition step in transcription initiation”. Besides, the “inhibition of formation of RNAP-promoter open complex (RPo)” value in [8] is on record as “does not inhibit formation of RPo”. Also, the “cross-resistance of GE^R mutants to other RNAP inhibitors” value in assay [9] (GE^R mutants) is “do not exhibit cross-resistance”. Also, the “resistance / cross-resistance level (MIC/MICwild-type)” value in assay [9] ({}) came out at 1.
Consider Lipiarmycin [Lpm], for which the “resistance / cross-resistance level (MIC/MICwild-type)” value in assay [9] (setting [11]), in assay [9] (setting [12]), in assay [9] (setting [13]), in assay [9] (setting [14]), in assay [9] (setting [15]) and in assay [9] (setting [16]) was 1 each time. Besides, the MICwild-type in [9] (setting [17]) was 0.78 µg/mL.
On to `ONC(=Nc1ccccc1)c1cccc(C(F)(F)F)c1` [CBR703], for which the “resistance / cross-resistance level (MIC/MICwild-type)” value was 1 in assay [9] (setting [11]); 1 in assay [9] (setting [12]); 1 in [9] (setting [13]); 1 in assay [9] (setting [14]); 1 in assay [9] (setting [15]); 2 in assay [9] (setting [16]). This molecule came in with an MICwild-type in [9] (setting [17]) of 6.25 µg/mL.
In assay [4], “[F^517]σ^70-RNAP holoenzyme (E. coli RNAP holoenzyme labelled with fluorescein at σ^70 residue 517), wild-type RNAP (from UniProt P0A8V2;P0A8T7;P00579) [Asp565]β” came in with a Ki greater than 2000 nM.
On to `CO[C@H]1/C=C/O[C@@]2(C)Oc3c(C)c(O)c4c(O)c(cc(O)c4c3C2=O)NC(=O)/C(C)=C\C=C\[C@H](C)[C@H](O)[C@@H](C)[C@@H](O)[C@@H](C)[C@H](OC(C)=O)[C@@H]1C` [RifSV, rifamycin SV], for which, in assay [2], the IC50 was 10000 nM.
Sorangicin: the “resistance / cross-resistance level (MIC/MICwild-type)” value in assay [9] (setting [11]), in assay [9] (setting [12]), in assay [9] (setting [13]), in assay [9] (setting [14]), in assay [9] (setting [15]) and in [9] (setting [16]) was 1 throughout. The molecule also yielded an MICwild-type in assay [9] (setting [17]) of 1.56 µg/mL.
In [10], GE23077 (peptide) registered an inhibitory constant (Ki) of 6 nM.
In the case of `CCC/C(C)=C/C=C(\C)C(=O)c1c(O)cc([C@H](C)CC/C=C/NC(=O)OC)oc1=O` (racemic) [Myx, (±)E,E-myxopyronin B], the “resistance / cross-resistance level (MIC/MICwild-type)” value in [9] (setting [11]), in [9] (setting [12]), in [9] (setting [13]), in assay [9] (setting [14]), in assay [9] (setting [15]) and in assay [9] (setting [16]) was 1 each time. In addition, the MICwild-type in assay [9] (setting [17]) stood at 0.098 µg/mL.
In the case of `CNC(=O)[C@@H](C)[C@H]1C(=O)/C(=C(O)/C=C/C(C)=C/[C@@H](C)[C@H]2O[C@@]3(C)O[C@H](C=C[C@@]34CO4)[C@@H]2C)C(=O)N1[C@@H]1CC[C@H](O)[C@H](C)O1` [Stl, streptolydigin], in assay [9] ({}), the MICwild-type is 0.78 µg/mL and the “resistance / cross-resistance level (MIC/MICwild-type)” value is reported as 1.

What is called IC50 is the midpoint of a concentration-inhibition curve. The term Ki denotes the equilibrium dissociation constant of an inhibitor or competing ligand from its target. A low value points to higher affinity. The Kd is the concentration at which binding is half-saturated. What is called koff is the rate constant with which the complex falls apart. The term kon denotes the second-order rate constant of association.
